Test results taken from patent US7709539B2, “Therapeutic use of resveratrol for hyperglycemia” (Chang Gung University, priority 2004, dated 2010).

What was measured:
Assay type in all cases: in vivo, rat
IDDM SD rats = experiment: Antihyperglycemic effect in IDDM SD rats (STZ-induced); settings: 90 min after drug feeding
Experimental: Resveratrol was first dissolved in DMS0 and diluted to 0.05 mg, 0.1 mg and 0.5 mg per ml wit normal saline. Animals were fed with desired amounts of drug solutions though tubing from the mouth into the stomach. Male rats were fasted for […] and anesthetized by intraperitoneal injection of pentobarbital at 30 mg/kg body weight. Animals were then injected with freshly prepared streptozotocin (STZ) solution at 65 mg/kg body weight intravenously. Three days later, blood sugar was measured. Animals with blood sugar levels above 400 mg/dl and symptoms of polyphagia, polyuria and polydipsia are classified as being induced to IDDM. Normal, IDDM, and NIDDM SD rats were fasted for 8 hrs and anesthetized by pentobarbital (30 mg/kg, ip). Animals were fed with different dosages of resveratrol (0.05 mg, 0.1 mg, or 0.5 mg per kg body weight), and blood samples were then collected from femoral vein at the time points 0, 60, 90, and 120 min. Ten μl plasma was mixed with 1 ml glucose kit reagent and incubated at 37° C. for 10 min. The blood sugar level was determined as described. Data were expressed as mean±standard error (S.E.). […] IDDM SD rats were fed with resveratrol at 0.05 mg, 0.1 mg, or 0.5 mg per kg body weight and the blood sugar was measured at 90 min after drug feeding.

normal SD rats = experiment: Hypoglycemic effect in normal SD rats (blood sugar); settings: for reduction of blood sugar: normal SD rats, 90 min after drug feeding
Experimental: Eight week-old Sprague Dawley (SD) rats (body weight from 200 gm to 250 gm) were maintained in the Animal Center of the Chang (Jung Memorial Hospital, under an ambient temperature of 25±1° C. and a light-dark period of 12 hrs. Animals were fed with normal chow and water. Resveratrol was first dissolved in DMS0 and diluted to 0.05 mg, 0.1 mg and 0.5 mg per ml wit normal saline. Animals were fed with desired amounts of drug solutions though tubing from the mouth into the stomach. Normal, IDDM, and NIDDM SD rats were fasted for 8 hrs and anesthetized by pentobarbital (30 mg/kg, ip). Animals were fed with different dosages of resveratrol (0.05 mg, 0.1 mg, or 0.5 mg per kg body weight), and blood samples were then collected from femoral vein at the time points 0, 60, 90, and 120 min. Ten μl plasma was mixed with 1 ml glucose kit reagent and incubated at 37° C. for 10 min. The blood sugar level was determined as described. […]. Data were expressed as mean±standard error (S.E.). Statistical analysis was performed using ANOVA (analysis of variance) followed by Dunnett test, and the significant difference was set at P<0.05. Male SD rats were fed with resveratrol at 0.05 mg, 0.1 mg, or 0.5 mg per kg body weight and plasma glucose level was measured at 90 min after drug feeding.

NIDDM SD rats = experiment: Antihyperglycemic effect in NIDDM SD rats (nicotinamide/STZ-induced); settings: 0.1 mg/kg oral
Experimental: Resveratrol was first dissolved in DMS0 and diluted to 0.05 mg, 0.1 mg and 0.5 mg per ml wit normal saline. Animals were fed with desired amounts of drug solutions though tubing from the mouth into the stomach. B. NIDDM: Male SD rats were fasted for 48 hrs and anesthetized by intraperitoneal injection of pentobarbital at 30 mg/kg body weight. Animals were then injected with nicotinamide (100 mg/kg, ip) and streptozotocin (65 mg/kg, iv). Four weeks later, plasma glucose concentration was determined by the glucose oxidase method (Chemistry Analyzer; Autoanalyzer Quik-Lab., Ames, Spain). Animals with fasting blood sugar levels around 200 mg/dl and the development of an obese phenotype are classified as being induced to NIDDM. Normal, IDDM, and NIDDM SD rats were fasted for 8 hrs and anesthetized by pentobarbital (30 mg/kg, ip). Animals were fed with different dosages of resveratrol (0.05 mg, 0.1 mg, or 0.5 mg per kg body weight), and blood samples were then collected from femoral vein at the time points 0, 60, 90, and 120 min. Ten μl plasma was mixed with 1 ml glucose kit reagent and incubated at 37° C. for 10 min. The blood sugar level was determined as described. Data were expressed as mean±standard error (S.E.). […] NIDDM rats were fed with resveratrol and blood sugar was then measured as described.

[1] = tested on: SD rats injected with insulin; experiment: Development of insulin resistance and body weight increase in insulin-injected SD rats
Experimental: A. Insulin Resistance: Male SD rats were intraperitoneally injected with insulin (Monotard®HM; Novo Nordisk, Bagsvaerd, Denmark, 0.5 IU/kg, tid) for 2 weeks. The development of insulin resistance is confirmed by a tolbutamide test (11). Male SD rats were intraperitoneally injected with insulin at 0.5 IU/kg, tid with or without resveratrol feeding (0.5 mg/kg BW, bid) Animals without resveratrol feeding started to develop insulin resistance on day 16.5±1.5. In contrast, development of insulin resistance in the resveratrol-fed animals was delayed till 23.5±1.5 days. In addition, resveratrol reduced the body weight increase by 6% compared with the untreated insulin-resistant animals (FIG. 6)

[2] = tested on: NIDDM insulin-resistant SD rats; experiment: Antihyperglycemic effect in NIDDM insulin-resistant SD rats (insulin-induced)
Experimental: Resveratrol was first dissolved in DMS0 and diluted to 0.05 mg, 0.1 mg and 0.5 mg per ml wit normal saline. Animals were fed with desired amounts of drug solutions though tubing from the mouth into the stomach. A. Insulin Resistance: Male SD rats were intraperitoneally injected with insulin (Monotard®HM; Novo Nordisk, Bagsvaerd, Denmark, 0.5 IU/kg, tid) for 2 weeks. The development of insulin resistance is confirmed by a tolbutamide test (11). Normal, IDDM, and NIDDM SD rats were fasted for 8 hrs and anesthetized by pentobarbital (30 mg/kg, ip). Animals were fed with different dosages of resveratrol (0.05 mg, 0.1 mg, or 0.5 mg per kg body weight), and blood samples were then collected from femoral vein at the time points 0, 60, 90, and 120 min. Ten μl plasma was mixed with 1 ml glucose kit reagent and incubated at 37° C. for 10 min. The blood sugar level was determined as described. […]. Data were expressed as mean±standard error (S.E.). Statistical analysis was performed using ANOVA (analysis of variance) followed by Dunnett test, and the significant difference was set at P<0.05. NIDDM rats were fed with resveratrol and blood sugar was then measured as described.

Oc1ccc(C=Cc2cc(O)cc(O)c2)cc1 [resveratrol]
reduction of blood sugar (IDDM SD rats; 0.1 mg/kg oral): 21.00±5.84%
reduction of blood sugar (IDDM SD rats; 0.5 mg/kg oral): 23.00±1.89%
reduction of blood sugar (normal SD rats; 0.1 mg/kg oral): 25.72±4.03%
reduction of blood sugar (normal SD rats; 0.5 mg/kg oral): 35.53±2.0%
blood sugar reduction, dose dependence (normal SD rats; normal SD rats, 0.05, 0.1, 0.5 mg/kg oral, 90 min): dose-dependent manner
reduction of blood sugar (NIDDM SD rats): 28.3±1.67%
time to development of insulin resistance ([1]; insulin 0.5 IU/kg ip tid with resveratrol feeding 0.5 mg/kg BW bid, without resveratrol day 16.5±1.5): 23.5 ± 1.5 days
reduction of body weight increase compared with untreated insulin-resistant animals ([1]; insulin-resistant SD rats, resveratrol 0.5 mg/kg BW bid): 6%
reduction of blood sugar ([2]; NIDDM insulin-resistant SD rats, 0.5 mg/kg oral, 90 min after drug feeding): 32.1±1.62%
hypoglycemic effect, dose dependence ([2]; NIDDM insulin-resistant rats, oral): dose-dependent hypoglycemic effect
